One test deals with LN229 cells. The test can be described thus: Amino acid starvation assay: antiproliferation assay with LN229 cells (CellTiter-Glo). Type of test: cell-based. The following applies: Homo sapiens, LN-229, 144 h, F12K medium, six days. As to the method: Amino Acid Starvation Assay
The ability of compounds to inhibit amino acid uptake interact with LAT1 was measured using an antiproliferation assay with LN229 cells (ATCC®). LN229 cells were cultured in DMEM medium (VWR International). Two (2)×10^3 (2,000) cells/well were plated in clear bottom 96-well plates (CellBIND®, Corning 3340) and were allowed to attach overnight. The next day, cells were washed once with PBS buffer (VWR International). F12K medium ([…]) (VWR International) with increasing concentrations of test compounds in at least triplicate was added. Cells were incubated for six (6) days at 37° C. and 5% CO2. At end of the assay, 140 μL of supernatant medium were removed from each well and 60 μL of CellTiter-Glo® (Promega) were added. Cell lysis was induced by placing the plates for three (3) minutes on an orbital shaker. Plates were incubated for 10 min at 25° C. to stabilize the luminesce signal. Luminescence was recorded using an EnSpire® Multimode Plate Reader (Perkin Elmer). Background (luminescence from wells incubated in the presence of 100 µM of commercial LAT1 inhibitor JPH203 (MedKoo) was subtracted, and data were normalized to the DMSO control (proliferation in the absence of any competitor). Data were fitted to the Michaelis-Menten equation using GraphPad Prism (Version 8.2.0).
On the technique in general: Cellular ATP, detected with luciferase, serves as a proxy for viable cell number.

The next test deals with LAT1 (Homo sapiens (Human), UniProt Q01650). Briefly: LAT1 uptake inhibition assay: [3H]-gabapentin competition uptake in LN229 cells. Format: cell-based. The following applies: [3H]-gabapentin uptake. How it is done:
LAT1 Uptake Inhibition Assay
The ability of compounds to interact with LAT1 was measured using a radiolabeled competition uptake assay with [^3H]-Gabapentin ([^3H]-GP) (Perkin Elmer) in 96-well plates with LN229 cells (ATCC®). Ten (10)×10^3 (10,000) cells/well were plated in white, clear bottom plates and were allowed to grow for three (3) days. On the fourth day, the cells were washed and then incubated with 50,000 counts per minute (cpm) of [^3H]-GP in phosphate buffered saline (PBS) (VWR International) with increasing concentrations of test compounds in at least triplicate for 15 min. At end of the assay time, the incubation solution was removed, and plates were washed three times (3×) with 100 μL of ice-cold PBS buffer. One-hundred fifty (150) […] of scintillation fluid (VWR International) was added to each well, and the radioactivity retained within the cells was measured on a 96-well scintillation counter. Background uptake ([^3H]-GP uptake in the presence of 10 mM non-radiolabeled gabapentin (GP)) (MedKoo) was subtracted and data were normalized to the DMSO control ([^3H]-GP uptake in the absence of any competitor). Data were fitted to the Michaelis-Menten equation using GraphPad Prism (Version 8.2.0).

[1] abbreviates: 15 min incubation in PBS, read-out: IC50, the concentration of test compound at which the [3H]-GP uptake was inhibited by 50%.

Like-named read-outs stand apart in the source and are kept apart here.

From patent publication US20250319046A1, “PHENYLALANINE-BASED LAT1 INHIBITORS AND USES THEREOF” (MAXYMUNE THERAPEUTICS, INC., priority 2024, published 2025) come the findings set out here.

Chain of LAT1 (Q01650 whole entry): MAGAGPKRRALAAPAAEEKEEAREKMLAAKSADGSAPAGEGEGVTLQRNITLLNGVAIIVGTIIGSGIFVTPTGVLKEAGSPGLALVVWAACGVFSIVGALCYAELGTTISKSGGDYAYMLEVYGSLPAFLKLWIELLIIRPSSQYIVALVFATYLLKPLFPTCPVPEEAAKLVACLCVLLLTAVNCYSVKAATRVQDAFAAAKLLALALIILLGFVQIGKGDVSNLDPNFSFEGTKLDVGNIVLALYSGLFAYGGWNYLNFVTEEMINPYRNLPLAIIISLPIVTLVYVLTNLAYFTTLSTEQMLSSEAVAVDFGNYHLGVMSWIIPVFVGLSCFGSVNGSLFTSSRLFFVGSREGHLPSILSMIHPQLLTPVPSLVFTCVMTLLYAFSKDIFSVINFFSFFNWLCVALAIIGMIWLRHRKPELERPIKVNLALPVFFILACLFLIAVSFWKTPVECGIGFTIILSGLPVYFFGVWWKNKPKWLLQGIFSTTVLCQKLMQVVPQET
Chain of LAT1 (P08195 whole entry partner): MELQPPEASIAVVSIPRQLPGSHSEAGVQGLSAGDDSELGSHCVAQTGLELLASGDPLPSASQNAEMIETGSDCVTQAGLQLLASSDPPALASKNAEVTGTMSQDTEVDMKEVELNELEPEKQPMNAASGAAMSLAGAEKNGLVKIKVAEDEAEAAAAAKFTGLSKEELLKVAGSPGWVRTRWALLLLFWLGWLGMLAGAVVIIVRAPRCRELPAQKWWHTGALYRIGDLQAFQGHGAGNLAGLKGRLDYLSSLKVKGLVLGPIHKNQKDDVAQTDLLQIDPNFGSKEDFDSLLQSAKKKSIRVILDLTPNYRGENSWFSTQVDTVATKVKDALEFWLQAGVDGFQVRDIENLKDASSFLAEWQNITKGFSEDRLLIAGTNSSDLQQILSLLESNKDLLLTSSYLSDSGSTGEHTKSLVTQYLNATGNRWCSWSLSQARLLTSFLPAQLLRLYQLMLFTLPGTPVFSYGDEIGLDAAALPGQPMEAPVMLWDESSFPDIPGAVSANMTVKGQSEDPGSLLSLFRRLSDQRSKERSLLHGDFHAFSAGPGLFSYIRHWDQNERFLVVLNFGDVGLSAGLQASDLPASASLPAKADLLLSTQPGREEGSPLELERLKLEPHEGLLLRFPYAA

`CC(C)c1ccc(NS(=O)(=O)c2cccc3c(N(C)C)cccc23)cc1C[C@H](N)C(=O)O` [Compound 21, (S)-2-Amino-3-(5-((5-(dimethylamino)naphthalene)-1-sulfonamido)-2-isopropylphenyl)propanoic Acid]: the CC50 is 49 ± 1 µM in the test on LN229 cells (Table 1, read-out: Anti-proliferation LC50 (μM ± SE)) and 30 to 100 µM in the test on LN229 cells (read-out: LC50, the concentration of test compound at which the proliferation was inhibited by 50%). Further, the IC50 at LAT1 (setting [1]) was 20 to 100 nM; at LAT1 (Table 1, read-out: LAT1 inhibition IC50 (nM ± SE)) it was 50 ± 10 nM. For `Cc1ccc(S(=O)(=O)Nc2ccc(S(=O)(=O)Nc3ccc(C)c(C[C@H](N)C(=O)O)c3)cc2)cc1` [Compound 33, (S)-2-Amino-3-(2-methyl-5-((4-((4-methylphenyl)sulfonamido)phenyl)sulfonamido)phenyl)propanoic Acid], at LAT1 (setting [1]), the IC50 is 100 to 1000 nM. The same measure, in the same setting: the figure for `CNS(=O)(=O)c1cccc(C[C@H](N)C(=O)O)c1` [Compound 72, (S)-2-Amino-3-(3-(N-methylsulfamoyl)phenyl)propanoic Acid] is not below 10000 nM; for `Cc1ccc(S(=O)(=O)Nc2ccccc2Br)cc1C[C@H](N)C(=O)O` [Compound 75, (S)-2-Amino-3-(5-(N-(2-bromophenyl)sulfamoyl)-2-methylphenyl)propanoic Acid] it is 100 to 1000 nM; for `CN(C)c1cccc2c(S(=O)(=O)Nc3ccc(C[C@H](N)C(=O)O)cc3)cccc12` [Compound 4, (S)-2-amino-3-(4-((5-(dimethylamino)naphthalene)-1-sulfonamido)phenyl)propanoic acid] it is 1000 to 10000 nM. Still for that read-out and setting: the figure for `CN(C)c1cccc2c(S(=O)(=O)Nc3ccccc3C[C@H](N)C(=O)O)cccc12` [Compound 19, (S)-2-Amino-3-(2-((5-(dimethylamino)naphthalene)-1-sulfonamido)phenyl)propanoic Acid] is 100 to 1000 nM. On the same count and under the same terms, the figure for `Cc1ccc(NS(=O)(=O)C2CC2)cc1C[C@H](N)C(=O)O` [Compound 14, (S)-2-Amino-3-(5-(cyclopropanesulfonamido)-2-methylphenyl)propanoic Acid] is 1000 to 10000 nM.

On to `Cc1ccc(CS(=O)(=O)Cc2ccccc2)cc1C[C@H](N)C(=O)O` [Compound 56, (S)-2-Amino-3-(5-((benzylsulfonyl)methyl)-2-methylphenyl)propanoic Acid], for which the IC50 at LAT1 (setting [1]) was 100 to 1000 nM.

Regarding `Cc1ccc([S+]([O-])Cc2ccccc2)cc1C[C@H](N)C(=O)O` (stereo partly drawn) [Compound 64, (2S)-2-Amino-3-(5-(benzylsulfinyl)-2-methylphenyl)propanoic Acid], at LAT1 (setting [1]), the IC50 was in the range of 1000 to 10000 nM. Same read-out and setting: next, `Cc1ccc(NS(=O)(=O)c2c(Cl)cc(C(F)(F)F)cc2Cl)cc1C[C@H](N)C(=O)O` [Compound 36, (S)-2-Amino-3-(5-((2,6-dichloro-4-(trifluoromethyl)phenyl)sulfonamido)-2-methylphenyl)propanoic Acid]: 1000 to 10000 nM.

As to `Cc1ccc(SCc2ccccc2)cc1C[C@H](N)C(=O)O` [Compound 59, (S)-2-Amino-3-(5-(benzylthio)-2-methylphenyl)propanoic Acid], the IC50 at LAT1 (setting [1]) was 100 to 1000 nM.

With `Cc1ccc(NS(=O)(=O)Cc2ccccc2)cc1C[C@H](N)C(=O)O` [Compound 23, (S)-2-Amino-3-(2-methyl-5-((phenylmethyl)sulfonamido)phenyl)propanoic Acid], the IC50 at LAT1 (setting [1]) lay within 100 to 1000 nM. The same measure, in the same setting: next, `Cc1ccc(S(=O)(=O)Nc2cccc(S(=O)(=O)Nc3ccc(C)c(C[C@H](N)C(=O)O)c3)c2)cc1` [Compound 32, (S)-2-Amino-3-(2-methyl-5-((3-((4-methylphenyl)sulfonamido)phenyl)sulfonamido)phenyl)propanoic Acid]: 100 to 1000 nM. Consider `Cc1ccc(NS(=O)(=O)c2ccc(-c3ccccc3)cc2)cc1C[C@H](N)C(=O)O` [Compound 17, (S)-3-(5-([1,1′-Biphenyl]-4-sulfonamido)-2-methylphenyl)-2-aminopropanoic Acid], for which the IC50 on LAT1 (setting [1]) lay within 100 to 1000 nM.

As to `Cc1ccc(NS(=O)(=O)c2c(Cl)cccc2Cl)cc1C[C@H](N)C(=O)O` [Compound 42, (S)-2-Amino-3-(5-((2,6-dichlorophenyl)sulfonamido)-2-methylphenyl)propanoic Acid], the IC50 at LAT1 (setting [1]) is 100 to 1000 nM. As to `N[C@@H](Cc1ccc(S(N)(=O)=O)cc1)C(=O)O` [Compound 74, (S)-2-Amino-3-(4-sulfamoylphenyl)propanoic acid], the IC50 at LAT1 (setting [1]) is not below 10000 nM.

Regarding `Cc1ccc(NS(=O)(=O)c2c[nH]cn2)cc1C[C@H](N)C(=O)O` [Compound 31, (S)-3-(5-(1H-imidazole-4-sulfonamido)-2-methylphenyl)-2-aminopropanoic Acid], on LAT1 (setting [1]), the IC50 was not below 10000 nM. Take `Cc1ccc(S(=O)(=O)N(c2ccc(C)c(C[C@H](N)C(=O)O)c2)S(=O)(=O)c2ccc(C)cc2)cc1` [Compound 48, (S)-2-Amino-3-(2-methyl-5-((4-methyl-N-tosylphenyl)sulfonamido)phenyl)propanoic Acid]: the IC50 on LAT1 (setting [1]) is 100 to 1000 nM. Still for that read-out and setting: next, `Cc1ccc(S(=O)(=O)Nc2cccc3ncccc23)cc1C[C@H](N)C(=O)O` [Compound 50, (S)-2-Amino-3-(2-methyl-5-(N-(quinolin-5-yl)sulfamoyl)phenyl)propanoic Acid]: 100 to 1000 nM. Still for that read-out and setting: next, `Cc1ccc(NS(=O)(=O)c2cn(C)c(C)n2)cc1C[C@H](N)C(=O)O` [Compound 18, (S)-2-Amino-3-(5-((1,2-dimethyl-1H-imidazole)-4-sulfonamido)-2-methylphenyl)propanoic Acid]: not below 10000 nM; `Cc1ccc(NS(=O)(=O)c2cc(Cl)cc(Cl)c2)cc1C[C@H](N)C(=O)O` [Compound 43, (S)-2-Amino-3-(5-((3,5-dichlorophenyl)sulfonamido)-2-methylphenyl)propanoic Acid]: 100 to 1000 nM; `COc1cc(NS(=O)(=O)c2cccc3c(N(C)C)cccc23)ccc1C[C@H](N)C(=O)O` [Compound 8, (S)-2-Amino-3-(4-((5-(dimethylamino)naphthalene)-1-sulfonamido)-2-methoxyphenyl)propanoic Acid]: 1000 to 10000 nM. On the same count and under the same terms, the figure for `Cc1ccc(S(=O)(=O)Cc2ccccc2)cc1C[C@H](N)C(=O)O` [Compound 65, (S)-2-Amino-3-(5-(benzylsulfonyl)-2-methylphenyl)propanoic Acid] is 100 to 1000 nM; for `CN(C)c1cccc2c(S(=O)(=O)Nc3ccc(Cl)c(C[C@H](N)C(=O)O)c3)cccc12` [Compound 15, (S)-2-Amino-3-(2-chloro-5-((5-(dimethylamino)naphthalene)-1-sulfonamido)phenyl)propanoic Acid] it is 100 to 1000 nM; for `Cc1ccc(NS(=O)(=O)c2csc3ccccc23)cc1C[C@H](N)C(=O)O` [Compound 27, (S)-2-Amino-3-(5-(benzo[b]thiophene-3-sulfonamido)-2-methylphenyl)propanoic Acid] it is 100 to 1000 nM.

On to `N[C@@H](Cc1cccc(NS(=O)(=O)c2ccccc2)c1)C(=O)O` [Compound 37, (S)-2-Amino-3-(3-(phenylsulfonamido)phenyl)propanoic Acid], for which, at LAT1 (setting [1]), the IC50 lay in the range of 100 to 1000 nM.

For `Cc1ccc(NS(=O)(=O)C2CCOCC2)cc1C[C@H](N)C(=O)O` [Compound 12, (S)-2-Amino-3-(2-methyl-5-((tetrahydro-2H-pyran)-4-sulfonamido)phenyl)propanoic Acid], the IC50 on LAT1 (setting [1]) fell in the range of 1000 to 10000 nM.

With `Cc1ccc(S(=O)(=O)NCc2ccc(C)c(C[C@H](N)C(=O)O)c2)cc1` [Compound 66, (S)-2-Amino-3-(2-methyl-5-(((4-methylphenyl)sulfonamido)methyl)phenyl)propanoic Acid], the IC50 on LAT1 (setting [1]) is 100 to 1000 nM. The same measure, in the same setting: the figure for `Cc1ccc(CNS(=O)(=O)c2ccccc2)cc1C[C@H](N)C(=O)O` [Compound 69, (S)-2-Amino-3-(2-methyl-5-(phenylsulfonamidomethyl)phenyl)propanoic Acid] is 100 to 1000 nM; for `Cc1ccc(NS(=O)(=O)C[C@@]23CC[C@H](CC2=O)C3(C)C)cc1C[C@H](N)C(=O)O` [Compound 22, (S)-2-Amino-3-(5-((((1R,4R)-7,7-dimethyl-2-oxobicyclo[2.2.1]heptan-1-yl)methyl)sulfonamido)-2-methylphenyl)propanoic Acid] it is 1000 to 10000 nM. The same measure, in the same setting: next, `CC(=O)Nc1ccc(S(=O)(=O)Nc2ccc(C)c(C[C@H](N)C(=O)O)c2)c2ccccc12` [Compound 13, (S)-3-(5-((4-Acetamidonaphthalene)-1-sulfonamido)-2-methylphenyl)-2-aminopropanoic Acid]: 1000 to 10000 nM.
